These results are taken from patent US8791267B2, “Biaryl PDE4 inhibitors for treating inflammatory, cardiovascular and CNS disorders” (Decode Genetics EHF, priority 2007, dated 2014).

Molecules are shown by their SMILES. Counter-ions that a name gives are not always drawn. A value given as a limit tells only on which side of the number the result lay.

One test has as its target PDE4 (Homo sapiens, UniProt Q08499). Description: In-vitro assay for PDE4 enzymes, real-time enzyme-coupled spectrophotometric assay (Table 9). In kind it is biochemical. The settings on record: human PDE4D; activity class, Table 9; read-out: hPDE4D.
The next test has as its target PDE4B (Homo sapiens, UniProt Q07343). Kind of test: In-vitro assay for PDE4 enzymes, real-time enzyme-coupled spectrophotometric assay, PDE4B Activity (Table 10). In kind it is biochemical. The following applies: human PDE4B (hPDE4B), enzyme-coupled spectrophotometric assay; read-out: PDE4B Activity, hPDE4B.

PDE4B, sequence (Q07343 whole entry): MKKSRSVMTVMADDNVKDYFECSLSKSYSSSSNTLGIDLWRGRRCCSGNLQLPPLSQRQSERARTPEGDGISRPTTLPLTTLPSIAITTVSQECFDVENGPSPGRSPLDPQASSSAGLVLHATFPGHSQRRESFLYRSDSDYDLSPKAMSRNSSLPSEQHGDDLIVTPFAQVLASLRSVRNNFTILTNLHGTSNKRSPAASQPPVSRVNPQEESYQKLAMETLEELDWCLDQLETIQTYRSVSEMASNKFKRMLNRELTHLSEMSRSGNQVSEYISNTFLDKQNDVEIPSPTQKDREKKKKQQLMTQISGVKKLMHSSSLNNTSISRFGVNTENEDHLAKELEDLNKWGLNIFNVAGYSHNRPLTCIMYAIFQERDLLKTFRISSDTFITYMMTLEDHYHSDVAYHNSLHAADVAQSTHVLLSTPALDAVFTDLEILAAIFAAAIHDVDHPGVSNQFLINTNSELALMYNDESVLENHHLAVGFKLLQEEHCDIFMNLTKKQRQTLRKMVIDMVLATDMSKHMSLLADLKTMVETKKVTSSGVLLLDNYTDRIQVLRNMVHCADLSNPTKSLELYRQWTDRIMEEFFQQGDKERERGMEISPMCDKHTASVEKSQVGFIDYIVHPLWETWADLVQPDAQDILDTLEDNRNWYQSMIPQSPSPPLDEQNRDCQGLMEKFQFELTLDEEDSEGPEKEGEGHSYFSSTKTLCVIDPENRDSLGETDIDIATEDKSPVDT
PDE4, sequence (Q08499 whole entry): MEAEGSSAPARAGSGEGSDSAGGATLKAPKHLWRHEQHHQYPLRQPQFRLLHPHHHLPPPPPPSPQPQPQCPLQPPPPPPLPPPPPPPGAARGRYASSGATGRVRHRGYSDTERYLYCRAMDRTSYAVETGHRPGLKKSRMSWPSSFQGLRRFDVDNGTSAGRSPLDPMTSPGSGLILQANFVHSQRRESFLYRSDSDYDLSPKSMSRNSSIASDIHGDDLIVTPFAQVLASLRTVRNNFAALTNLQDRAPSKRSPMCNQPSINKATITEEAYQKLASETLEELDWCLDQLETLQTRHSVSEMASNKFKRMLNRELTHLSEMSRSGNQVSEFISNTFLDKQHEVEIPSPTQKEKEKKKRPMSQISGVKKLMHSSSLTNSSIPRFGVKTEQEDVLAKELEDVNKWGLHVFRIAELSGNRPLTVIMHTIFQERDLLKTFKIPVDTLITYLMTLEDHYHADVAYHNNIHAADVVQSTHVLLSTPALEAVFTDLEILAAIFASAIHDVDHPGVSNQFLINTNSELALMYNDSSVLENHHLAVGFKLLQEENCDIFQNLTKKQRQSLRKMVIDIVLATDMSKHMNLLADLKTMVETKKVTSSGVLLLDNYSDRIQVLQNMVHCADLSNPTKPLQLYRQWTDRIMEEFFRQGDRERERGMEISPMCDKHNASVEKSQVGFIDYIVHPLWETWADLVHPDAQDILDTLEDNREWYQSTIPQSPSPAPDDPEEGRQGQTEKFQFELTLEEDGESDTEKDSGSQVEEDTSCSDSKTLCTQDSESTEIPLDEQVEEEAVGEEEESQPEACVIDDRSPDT

In the case of `COc1ccc(Cc2ccc(NC(N)=O)cc2)nc1-c1cccc(Cl)c1` [P-376, {4-[6-(3-chloro-phenyl)-5-methoxy-pyridin-2-ylmethyl]-phenyl}-urea], the IC50 at PDE4 and at PDE4B was less than 5 µM each time.
With `COc1ccc(Cc2ccc(NC(N)=O)cc2)cc1-c1cccc(Cl)c1` [P-378, [4-(3′-chloro-6-methoxy-biphenyl-3-ylmethyl)-phenyl]-urea], the IC50 on PDE4 and on PDE4B was less than 5 µM in each case.
With `COc1ccc(Cc2ccc(N)nc2)nc1-c1cccc(Cl)c1` [P-379, 5-[6-(3-chloro-phenyl)-5-methoxy-pyridin-2-ylmethyl]-pyridin-2-ylamine], the IC50 on PDE4 and on PDE4B was less than 5 µM throughout.
For the compound `COc1ccc(Cc2ccc(C(=O)N(C)C)nc2)c(F)c1-c1cccc(Cl)c1` [P-382, 5-(3′-Chloro-2-fluoro-6-methoxy-biphenyl-3-ylmethyl)-pyridine-2-carboxylic acid dimethylamide], the IC50 on PDE4 and at PDE4B was less than 5 µM throughout.
In the case of `CCNC(=O)Nc1ccc(Cc2ccc(OC)c(-c3cccc(Cl)c3)n2)cn1` [P-386, 1-{5-[6-(3-chloro-phenyl)-5-methoxy-pyridin-2-ylmethyl]-pyridin-2-yl}-3-ethyl-urea hydrochloride], the IC50 on PDE4 and on PDE4B was less than 5 µM throughout.
On to `COc1ccc(Cc2ccc(NC(C)=O)nc2)c(F)c1-c1cccc(Cl)c1` [P-387], for which the IC50 at PDE4 and on PDE4B was less than 5 µM throughout.
Turning to `COc1ccc(Cc2ccc(N3CCNC3=O)nc2)c(F)c1-c1cccc(Cl)c1` [P-388, 1-[5-(3′-Chloro-2-fluoro-6-methoxy-biphenyl-3-ylmethyl)-pyridin-2-yl]-imidazolidin-2-one], the IC50 at PDE4 and on PDE4B was less than 5 µM throughout.
For `COc1ccc(Cc2cnc(Cl)nc2)c(F)c1-c1cccc(Cl)c1` [P-392], the IC50 on PDE4 and on PDE4B was less than 5 µM throughout.
Consider `COc1ccc(Cc2cnc(N3CC(O)C3)nc2)c(F)c1-c1cccc(Cl)c1` [P-393, 1-[5-(3′-Chloro-2-fluoro-6-methoxy-biphenyl-3-ylmethyl)-pyrimidin-2-yl]-azetidin-3-ol], for which the IC50 at PDE4 and on PDE4B was less than 5 µM each time.
In the case of `COc1ccc(Cc2ccc(NC(N)=O)cc2)cc1-c1cccc(C#N)c1` [P-394, [4-(3′-Cyano-6-methoxy-biphenyl-3-ylmethyl)-phenyl]-urea], the IC50 at PDE4 and at PDE4B was less than 5 µM throughout.
Regarding `COc1ccc(Cc2cnc(N)nc2)c(F)c1-c1cccc(C#N)c1` [P-395, 3′-(2-Amino-pyrimidin-5-ylmethyl)-2′-fluoro-6′-methoxy-biphenyl-3-carbonitrile], the IC50 on PDE4 and on PDE4B was less than 5 µM each time.
As to `CCNC(=O)Nc1ccc(Cc2ccc(OC)c(-c3cccc(Cl)c3)c2F)c[n+]1[O-]` [P-397, 1-[5-(3′-Chloro-2-fluoro-6-methoxy-biphenyl-3-ylmethyl)-1-oxy-pyridin-2-yl]-3-ethyl-urea], the IC50 at PDE4 and on PDE4B was less than 5 µM throughout.
As for `CCOC(=O)Nc1ccc(Cc2ccc(OC)c(-c3cccc(C#N)c3)c2F)cn1` [P-398, [5-(3′-Cyano-2-fluoro-6-methoxy-biphenyl-3-ylmethyl)-pyridin-2-yl]-carbamic acid ethyl ester], the IC50 at PDE4 and at PDE4B was less than 5 µM throughout.
Consider `CCNC(=O)Nc1ncc(Cc2ccc(OC)c(-c3cccc(C#N)c3)c2F)cn1` [P-399, 1-[5-(3′-Cyano-2-fluoro-6-methoxy-biphenyl-3-ylmethyl)-pyrimidin-2-yl]-3-ethyl-urea], for which the IC50 on PDE4 and at PDE4B was less than 5 µM each time.
In the case of `CCNC(=O)Nc1ccc(Cc2ccc(OC)c(-c3cccc(C#N)c3)c2)cn1` [P-400, 1-[5-(3′-Cyano-6-methoxy-biphenyl-3-ylmethyl)-pyridin-2-yl]-3-ethyl-urea], the IC50 on PDE4 and at PDE4B was less than 5 µM in each case.
On to `COc1ccc(Cc2ccc(C(N)=O)nc2)c(F)c1-c1cccc(Cl)c1` [P-401, 5-(3′-Chloro-2-fluoro-6-methoxy-biphenyl-3-ylmethyl)-pyridine-2-carboxylic acid amide], for which the IC50 at PDE4 and at PDE4B was less than 5 µM throughout.
As to `COc1ccc(Cc2ccc(Br)nc2)c(F)c1-c1cccc(Cl)c1` [P-402, 2-Bromo-5-(3′-chloro-2-fluoro-6-methoxy-biphenyl-3-ylmethyl)-pyridine], the IC50 at PDE4 and on PDE4B was less than 5 µM throughout.
With `COc1ccc(Cc2ccc(-n3cnnn3)cc2)c(F)c1-c1cccc(Cl)c1` [P-404, 1-[4-(3′-chloro-2-fluoro-6-methoxy-biphenyl-3-ylmethyl)-phenyl]-1H-tetrazole], the IC50 on PDE4 and on PDE4B was less than 5 µM throughout.
Turning to `CCNC(=O)Nc1ccc(Cc2ccc(OC)c(-c3cccc(C#N)c3)c2F)cn1` [P-405, 1-[5-(3′-Cyano-2-fluoro-6-methoxy-biphenyl-3-ylmethyl)-pyridin-2-yl]-3-ethyl-urea hydrochloride salt], the IC50 on PDE4 and at PDE4B was less than 5 µM throughout.
With `COc1ccc(Cc2cnc(O[C@@H]3CCN(C)C3)nc2)c(F)c1-c1cccc(Cl)c1` [P-406, 5-(3′-Chloro-2-fluoro-6-methoxy-biphenyl-3-ylmethyl)-2-((R)-1-methyl-pyrrolidin-3-yloxy)-pyrimidine], the IC50 at PDE4 and at PDE4B was less than 5 µM in each case.
`COc1ccc(Cc2ccc(NCCO)nc2)c(F)c1-c1cccc(Cl)c1` [P-411]: the IC50 on PDE4 and at PDE4B was less than 5 µM each time.
Turning to `COc1ccc(Cc2ccc(-n3cncn3)nc2)c(F)c1-c1cccc(Cl)c1` [P-412], the IC50 at PDE4 and at PDE4B was less than 5 µM in each case.
In the case of `COc1ccc(Cc2ccc(NC(N)=O)cc2)c(F)c1-c1cccc(C#N)c1` [P-413], the IC50 on PDE4 and on PDE4B was less than 5 µM throughout.
For `COc1ccc(Cc2ccc(C(N)=O)nc2)c(F)c1-c1cccc(C#N)c1` [P-415, 5-(3′-Cyano-2-fluoro-6-methoxy-biphenyl-3-ylmethyl)-pyridine-2-carboxylic acid amide], the IC50 at PDE4 and at PDE4B was less than 5 µM in each case.
Regarding `COc1ccc(Cc2cnc(N3CC(O)C3)nc2)c(F)c1-c1cccc(C#N)c1` [P-417, 2′-Fluoro-3′-[2-(3-hydroxy-azetidin-1-yl)-pyrimidin-5-ylmethyl]-6′-methoxy-biphenyl-3-carbonitrile], the IC50 on PDE4 and on PDE4B was less than 5 µM each time.
Consider `NC(=O)Nc1ccc(Cc2ccc(OC(F)F)c(-c3cccc(Cl)c3)c2)cc1` [P-420], for which the IC50 at PDE4 and on PDE4B was less than 5 µM each time.
For `NC(=O)Nc1ccc(Cc2ccc(O)c(-c3cccc(Cl)c3)c2)cc1` [P-421, [4-(3′-Chloro-6-hydroxy-biphenyl-3-ylmethyl)-phenyl]-urea], the IC50 at PDE4 and on PDE4B was less than 5 µM each time.
Take `COc1ccc(Cc2ccc(-n3cnnn3)nc2)c(F)c1-c1cccc(Cl)c1` [P-422, 5-(3′-chloro-2-fluoro-6-methoxy-biphenyl-3-ylmethyl)-2-tetrazol-1-yl-pyridine]: the IC50 on PDE4 and on PDE4B was less than 5 µM each time.
Take `COc1ccc(Cc2ccc3nc(C(N)=O)cn3c2)c(F)c1-c1cccc(Cl)c1` [P-429, 6-(3′-chloro-2-fluoro-6-methoxy-biphenyl-3-ylmethyl)-imidazo[1,2-a]pyridine-2-carboxylic acid amide]: the IC50 on PDE4 and on PDE4B was less than 5 µM throughout.
On to `COc1ccc(Cc2ccc(N3CCN(C(N)=O)CC3)nc2)c(F)c1-c1cccc(Cl)c1` [P-432], for which the IC50 at PDE4 and at PDE4B was less than 5 µM in each case.
As to `COc1ccc(Cc2ccnc(C#N)c2)c(F)c1-c1cccc(Cl)c1` [P-433, 4-(3′-Chloro-2-fluoro-6-methoxy-biphenyl-3-ylmethyl)-pyridine-2-carbonitrile], the IC50 at PDE4 and at PDE4B was less than 5 µM throughout.
As for `COc1ccc(Cc2ccnc(CN)c2)c(F)c1-c1cccc(Cl)c1` [P-437, C-[4-(3′-Chloro-2-fluoro-6-methoxy-biphenyl-3-ylmethyl)-pyridin-2-yl]-methylamine], the IC50 at PDE4 and at PDE4B was less than 5 µM throughout.
Consider `COc1ccc(Oc2ccc(N)nc2)c(F)c1-c1cccc(C#N)c1` [P-439, 5-(3′-Cyano-2-fluoro-6-methoxy-biphenyl-3-yloxy)-pyridin-2-yl-ammonium chloride], for which the IC50 on PDE4 and on PDE4B was less than 5 µM each time.
With `CCNC(=O)Nc1ccc(Oc2ccc(OC)c(-c3cccc(C#N)c3)c2F)cn1` [P-440, 1-[5-(3′-Cyano-2-fluoro-6-methoxy-biphenyl-3-yloxy)-pyridin-2-yl]-3-ethyl-urea], the IC50 on PDE4 was less than 5 µM; on PDE4B it was 5 to 20 µM.
Taken in the same sequence, the figures for `COc1ccc(C(C)(O)c2ccc(NC(N)=O)cc2)c(F)c1-c1cccc(Cl)c1` (stereo not drawn) [P-441, {4-[1-(3′-chloro-2-fluoro-6-methoxy-biphenyl-3-yl)-1-hydroxy-ethyl]-phenyl}-urea] were less than 5 µM and 5 to 20 µM.
Taken in the same sequence, the figures for `COc1ccc(Cc2ccc3cnc(C(N)=O)n3c2)c(F)c1-c1cccc(Cl)c1` [P-445, 6-(3′-chloro-2-fluoro-6-methoxy-biphenyl-3-ylmethyl)-imidazo[1,5-a]pyridine-3-carboxylic acid amide] were less than 5 µM and 5 to 20 µM.
On the same counts, the results for `COc1ccc(Sc2ccc(N)cc2)cc1-c1cccc(Cl)c1` [P-447, 4-(3′-Chloro-6-methoxy-biphenyl-3-ylsulfanyl)-phenylaammonium chloride] are less than 5 µM and less than 5 µM.
Consider `CCNC(=O)Nc1ccc(Sc2ccc(OC)c(-c3cccc(Cl)c3)c2)cc1` [P-448, 1-[4-(3′-Chloro-6-methoxy-biphenyl-3-ylsulfanyl)-phenyl]-3-ethyl urea], for which the IC50 on PDE4 and on PDE4B was less than 5 µM throughout.
As for `O=[N+]([O-])c1cccc(-c2c(O)ccc(Cc3ccc(F)cc3)c2F)c1` [P-451], the IC50 at PDE4 and on PDE4B was less than 5 µM in each case.
